Source: article PMC11984871, “Perillaldehyde Improves Parkinson‐Like Deficits by Targeting G3BP Mediated Stress Granule Assembly in Preclinical Models” (Advanced Science, 2025)

Target: T1, G3BP1 (Homo sapiens, UniProt Q13283)
T1 construct: full-length, EGFP-tagged (mEGFP), recombinant in E. coli BL21(DE3) from pET-28a, size-exclusion purified; immobilized on CM5 chip
Assay: SPR (Biacore 8K, CM5 chip, immobilized EGFP-G3BP1, […] Langmuir fit)
Type: binding

T1 sequence (Q13283 2-466): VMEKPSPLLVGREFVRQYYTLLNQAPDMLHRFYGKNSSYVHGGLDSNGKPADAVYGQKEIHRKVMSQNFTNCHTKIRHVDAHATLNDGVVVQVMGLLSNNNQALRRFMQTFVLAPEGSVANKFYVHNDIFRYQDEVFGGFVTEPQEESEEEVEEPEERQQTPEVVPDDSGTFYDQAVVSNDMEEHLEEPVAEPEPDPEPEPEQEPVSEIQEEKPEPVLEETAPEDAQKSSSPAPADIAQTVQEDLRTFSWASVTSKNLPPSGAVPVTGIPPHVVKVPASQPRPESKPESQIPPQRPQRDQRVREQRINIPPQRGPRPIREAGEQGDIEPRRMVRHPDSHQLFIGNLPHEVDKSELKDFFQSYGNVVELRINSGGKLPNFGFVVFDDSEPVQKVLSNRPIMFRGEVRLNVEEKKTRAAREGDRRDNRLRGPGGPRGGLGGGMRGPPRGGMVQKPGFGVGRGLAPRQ

Structure (SMILES) | Kd
CC(=NNC(=O)c1ccccc1O)c1ccccc1O [C108] | 2.71 µM
C=C(C)[C@@H]1CC=C(C=O)CC1 [perillaldehyde] | 5.49 µM
